Experimental data published in publication PMC9114799, “In vitro Evaluation of Isoniazid Derivatives as Potential Agents Against Drug-Resistant Tuberculosis” (Frontiers in Pharmacology, 2022).
In brackets after ≈: the same amount, converted by molar mass. Where two headings read alike, the source gives them in different places. Marks after values point to notes of the source that are not given here.

Tests used:
[1] = test system: M. tuberculosis clinical strain katG (S315T); format: cell-based, Mycobacterium tuberculosis
[2] = test system: M. tuberculosis clinical strain katG (S315T); details: ref Martins et al., cited from earlier work

| Compound | activity in the mutated strain [1] | increase of MIC going from wt to S315T [1] | MIC (katG S315T) ([2]; katG (S315T) Mtb, 2014) | gain in efficacy against katG (S315T) strain compared with INH [1] [fold] | MIC (katG S315T) ([2]; Table S1, 2014 (per Table 2)) [g/mL] |
| --- | --- | --- | --- | --- | --- |
| COC(=O)c1ccc(/C=N/NC(=O)c2ccncc2)cc1 [Compound N33, methyl (E)-4-((2-isonicotinoylhydrazineylidene)methyl)benzoate] | still active | ~20 fold | 21.2 ^a µM |  |  |
| CCCCCCCCCC(=O)NNC(=O)c1ccncc1 [INH-C10, N′-decanoylisonicotinoylhydrazide] |  | ~20 fold | 6.9 ^a µM | 6 | 2.0 (≈ 6860 mM) |
| O=C(N/N=C/c1ccc(Oc2ccccc2)cc1)c1ccncc1 [Compound N34, (E)-N'-(4-phenoxybenzylidene)isonicotinohydrazide] | still active | ~20 fold | 18.9 ^a µM |  |  |
| NNC(=O)c1ccncc1 [INH, isonicotinoylhydrazide, reference compound] |  | approximately 150 fold | 43.8 ^a µM |  |  |
| O=C(NNCc1ccc(Oc2ccccc2)cc1)c1ccncc1 [Compound N34red, N'-(4-phenoxybenzyl)isonicotinohydrazide] | completely abolished |  |  |  |  |
| COC(=O)c1ccc(CNNC(=O)c2ccncc2)cc1 [Compound N33red, methyl 4-((2-isonicotinoylhydrazinyl)methyl)benzoate] | completely abolished |  |  |  |  |
